Data on 17 compounds can be found in US9951064B2, “Azaindazole compounds as inhibitors of T790M containing EGFR mutants” (Genentech, Inc., priority 2013, dated 2018).

In one assay the target is T1, EGFR T790M L858R (Homo sapiens, UniProt P00533, L858R/T790M).
T1 construct: purchased Life Technologies PV4879
Briefly: EGFR T790M L858R biochemical assay (Caliper mobility shift). Particulars: 5 μM ATP; apparent Ki (Morrison fit) converted by Cheng-Prusoff, Km of ATP 1.3 μM. How it is done:
(§1) The exemplified compounds described herein were tested according to the assay below. The enzyme data reported in Tables 4-5 is generally a representative of multiple experiments.
Reactions proceed for 30 minutes at room temperature (22° C.) and are terminated with 80 mM 2,2′,2″,2′″-(ethane-1,2-diyldinitrilo)tetraacetic acid (EDTA). Product is detected using the Caliper mobility shift detection method where product and substrate are electrophoretically separated and measured.

Assay [1] deals with T2, phosphor-EGFR in H1975(L585R/T790M) mutant EGFR expressing cells (Homo sapiens, UniProt P00533, L858R/T790M).
T2 construct: host or cells: NCI-H1975
Briefly: H1975 pEGFR MSD cellular assay. Format: cell-based. Particulars: NCI-H1975 cells, serum starved, 1 hour compound incubation, pEGFR Tyr1068 MSD; read-out: HI975 pEGFR EC50. The procedure:
H1975 pEGFR MSD Cellular Assays
These assays are intended for determining cellular. […] (Meso Scale Discovery Catalog# N31CB-1).
NCI-H1975 (ATCC Catalog# CRL-5908) cells are maintained in medium containing RPMI 1640, 10% FBS, 4 mM L-Glutamine, 1% Penicillin-Streptomycin, and 4.5 g/L Glucose. All cell culture reagents were purchased from Invitrogen/Gibco. Cells are cultured at 37° C. at 5% CO2 and split as recommended by ATCC.
Cell Plating and Serum Starvation:
H1975 cells are harvested and plated into sterile cell culture treated 384 well plates (Greiner catalog #781091) at a density of 30,000 cells/well in 50 ul culture medium and placed in a 37° C. at 5% CO2 incubator for six hours. After six hours, culture medium is aspirated and replaced with serum-free culture medium. Cells are then incubated with the serum-free medium overnight at 37° C. and 5% CO2.
The following day, test compounds are serially diluted in dimethyl sulfoxide (DMSO) and added to cells in serum free medium (final DMSO concentration 0.5%). Assay plates are then incubated for 1 hour at 37° C. and 5% CO2. Following 1 hour of compound incubation cells are then lysed and processed as per the MSD pEGFR assay kit protocol. Cell lysates are added to assay plates pre-coated with antibodies against phosphorylated EGFR. Phosphorylated EGFR in samples are allowed to bind to the capture antibodies overnight at 4° C. The detection antibody (anti-total EGFR, labeled with an electrochemiluminescent SULFO-TAG) is added to the bound lysate and incubated for 1 hour at room temperature. The MSD Read Buffer is added such that when a voltage is applied to the plate electrodes, the labels bound to the electrode surface emit light. The MSD Sector Instrument measures the intensity of the light, and quantitatively measures the amount of phosphorylated-EGFR in the sample. Percent inhibition of EGFR phosphorylation by varying concentrations of test compounds is calculated relative to untreated controls. EC50 values are calculated using the 4 parameter logistic nonlinear regression dose-response model.

For assay [2], the system named is H1975 (EGFR T790M/L858R) cell proliferation. Briefly: H1975 proliferation assay (Cell Titer-Glo). In kind it is cell-based. Particulars: Homo sapiens, NCI-H1975, 72 h, NCI-H1975 cells, 72 hour incubation, read-out: H1975 antiproliferative EC50. The procedure:
H1975 Proliferation Assays
All cell culture reagents were purchased from Invitrogen/Gibco. Cells are cultured at 37° C. at 5% CO2 and split as recommended by ATCC.

In the next assay the target is T3, EGFR del746-750 T790M (Homo sapiens, UniProt P00533, DEL746-750/T790M).
T3 construct: purchased Carna Biosciences 08-528
Briefly: EGFR del746-750 T790M biochemical assay (Caliper mobility shift). Particulars: 5 μM ATP; apparent Ki (Morrison fit) converted by Cheng-Prusoff, Km of ATP 2.1 μM; read-out: EGFR(T790M/d746-750) Ki. The procedure: as §1
Reactions proceed for 30 minutes at room temperature (22° C.) and are terminated with 80 mM 2,2′,2″,2″′-(ethane-1,2-diyldinitrilo)tetraacetic acid (EDTA). Product is detected using the Caliper mobility shift detection method where product and substrate are electrophoretically separated and measured.

Bounds are passed on as bounds.

As a reminder, the EC50 is the concentration needed to bring the measured effect to its halfway point.

T1 sequence (P00533 25-1210 T790M/L858R): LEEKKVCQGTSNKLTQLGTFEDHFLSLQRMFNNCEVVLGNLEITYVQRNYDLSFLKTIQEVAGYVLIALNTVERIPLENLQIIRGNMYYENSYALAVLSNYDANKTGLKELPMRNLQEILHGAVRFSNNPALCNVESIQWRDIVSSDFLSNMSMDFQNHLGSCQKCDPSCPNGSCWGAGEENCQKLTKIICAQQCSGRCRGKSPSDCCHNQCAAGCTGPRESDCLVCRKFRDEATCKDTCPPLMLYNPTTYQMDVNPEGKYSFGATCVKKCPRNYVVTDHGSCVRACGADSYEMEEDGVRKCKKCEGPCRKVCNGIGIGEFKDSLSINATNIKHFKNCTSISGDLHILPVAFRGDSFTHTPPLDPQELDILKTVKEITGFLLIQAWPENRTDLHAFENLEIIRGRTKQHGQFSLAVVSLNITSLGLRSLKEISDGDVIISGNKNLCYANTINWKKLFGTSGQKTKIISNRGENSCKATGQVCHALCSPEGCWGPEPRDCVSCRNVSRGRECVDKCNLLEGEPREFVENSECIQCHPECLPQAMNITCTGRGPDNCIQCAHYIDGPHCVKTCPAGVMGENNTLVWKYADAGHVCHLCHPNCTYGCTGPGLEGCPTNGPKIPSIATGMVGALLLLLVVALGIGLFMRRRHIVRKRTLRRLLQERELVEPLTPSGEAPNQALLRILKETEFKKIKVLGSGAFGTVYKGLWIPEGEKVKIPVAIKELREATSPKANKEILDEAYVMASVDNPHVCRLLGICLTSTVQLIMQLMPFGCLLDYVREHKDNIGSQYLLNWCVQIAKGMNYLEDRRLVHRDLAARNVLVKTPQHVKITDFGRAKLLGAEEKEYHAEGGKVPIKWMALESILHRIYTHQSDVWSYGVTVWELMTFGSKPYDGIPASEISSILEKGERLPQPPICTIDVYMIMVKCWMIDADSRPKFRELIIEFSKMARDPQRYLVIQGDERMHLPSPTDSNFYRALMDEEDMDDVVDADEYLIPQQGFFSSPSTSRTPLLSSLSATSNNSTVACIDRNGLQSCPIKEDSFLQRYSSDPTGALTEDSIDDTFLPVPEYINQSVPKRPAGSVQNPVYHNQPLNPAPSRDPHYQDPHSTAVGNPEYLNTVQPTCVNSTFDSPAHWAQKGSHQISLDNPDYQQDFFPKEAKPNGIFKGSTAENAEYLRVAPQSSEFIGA
T2 sequence (P00533 25-1210 T790M/L858R): as above
T3 sequence (P00533 with tags, fused parts or gaps DEL746-750/T790M limits assumed): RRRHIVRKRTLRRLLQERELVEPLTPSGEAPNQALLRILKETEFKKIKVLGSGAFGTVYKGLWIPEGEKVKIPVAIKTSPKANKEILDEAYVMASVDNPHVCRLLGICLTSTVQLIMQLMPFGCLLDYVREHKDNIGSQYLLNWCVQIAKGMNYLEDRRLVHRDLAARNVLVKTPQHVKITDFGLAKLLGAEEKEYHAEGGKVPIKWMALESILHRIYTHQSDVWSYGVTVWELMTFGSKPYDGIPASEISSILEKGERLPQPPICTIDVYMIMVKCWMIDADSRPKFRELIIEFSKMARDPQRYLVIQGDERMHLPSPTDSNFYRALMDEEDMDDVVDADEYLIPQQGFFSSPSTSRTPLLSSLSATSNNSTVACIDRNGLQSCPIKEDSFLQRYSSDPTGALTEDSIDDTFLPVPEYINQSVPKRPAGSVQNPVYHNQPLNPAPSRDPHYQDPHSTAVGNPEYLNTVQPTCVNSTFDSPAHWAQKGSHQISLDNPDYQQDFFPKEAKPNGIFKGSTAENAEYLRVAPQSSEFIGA

In the case of `CC(C)n1nc(N2CC(O)C(F)C2)c2cnc(Nc3ccnc(-c4cnn(S(=O)(=O)C5CC5)c4)n3)cc21` (stereo not drawn) [Example 42, 1-(6-(2-(1-(cyclopropylsulfonyl)-1H-pyrazol-4-yl)pyrimidin-4-ylamino)-1-isopropyl-1H-pyrazolo[4,3-c]pyridin-3-yl)-trans-4-fluoropyrrolidin-3-ol], the Ki at EGFR T790M L858R was 1.1 nM. The EC50 is 12.5 nM in assay [1] and 240 nM in assay [2].
The matching figures for `CC(C)n1nc(N2CCN=C2O)c2cnc(Nc3ccnc(-c4cnn(S(=O)(=O)C5CC5)c4)n3)cc21` [Example 43, 1-(6-(2-(1-(cyclopropylsulfonyl)-1H-pyrazol-4-yl)pyrimidin-4-ylamino)-1-isopropyl-1H-pyrazolo[4,3-c]pyridin-3-yl)-4,5-dihydro-1H-imidazol-2-ol]: 0.9 nM, 37.5 nM and 237 nM.
Take `CC(C)n1nc(N)c2cnc(Nc3ccnc(-c4cnn(S(=O)(=O)C5CC5)c4)n3)cc21` [Example 45, N^6-(2-(1-(cyclopropylsulfonyl)-1H-pyrazol-4-yl)pyrimidin-4-yl)-1-isopropyl-1H-pyrazolo[4,3-c]pyridine-3,6-diamine]: on EGFR T790M L858R, the Ki stood at 0.8 nM. For the same compound, the EC50 in assay [1] is 63.8 nM; in assay [2] it was 247 nM.
The matching figures for `CC(C)Nc1nn(C(C)C)c2cc(Nc3ccnc(-c4cnn(S(=O)(=O)C5CC5)c4)n3)ncc12` [Example 46, N^6-(2-(1-(cyclopropylsulfonyl)-1H-pyrazol-4-yl)pyrimidin-4-yl)-N^3,1-diisopropyl-1H-pyrazolo[4,3-c]pyridine-3,6-diamine]: 2.7 nM, 153 nM and 951 nM.
For `CC(C)n1nc(NCCC(N)=O)c2cnc(Nc3ccnc(-c4cnn(S(=O)(=O)C5CC5)c4)n3)cc21` [Example 47, 3-(6-(2-(1-(cyclopropylsulfonyl)-1H-pyrazol-4-yl)pyrimidin-4-ylamino)-1-isopropyl-1H-pyrazolo[4,3-c]pyridin-3-ylamino)propanamide], in that order: 0.8 nM, 874 nM and 3970 nM.
With `CC(C)n1nc(NCC(N)=O)c2cnc(Nc3ccnc(-c4cnn(S(=O)(=O)C5CC5)c4)n3)cc21` [Example 48, 2-(6-(2-(1-(cyclopropylsulfonyl)-1H-pyrazol-4-yl)pyrimidin-4-ylamino)-1-isopropyl-1H-pyrazolo[4,3-c]pyridin-3-ylamino)acetamide], the Ki at EGFR T790M L858R was 0.6 nM. Also, the EC50 in assay [1] is 1460 nM; in assay [2] it was 5440 nM.
With `CC(C)n1nc(N(C)CC(O)CO)c2cnc(Nc3ccnc(-c4cnn(S(=O)(=O)C5CC5)c4)n3)cc21` (centres unmarked) [Example 49, 3-((6-(2-(1-(cyclopropylsulfonyl)-1H-pyrazol-4-yl)pyrimidin-4-ylamino)-1-isopropyl-1H-pyrazolo[4,3-c]pyridin-3-yl)(methyl)amino)propane-1,2-diol], the Ki on EGFR T790M L858R came to 0.7 nM. Also, the concentration for a half-maximal effect (EC50) in assay [1] turned out to be 98 nM; in assay [2], 945 nM.
Consider `CC(C)c1nn(C(C)C)c2cc(Nc3ccnc(-c4cnn(S(=O)(=O)C5CC5)c4)n3)ncc12` [Example 50, N-(2-(1-(cyclopropylsulfonyl)-1H-pyrazol-4-yl)pyrimidin-4-yl)-1,3-diisopropyl-1H-pyrazolo[4,3-c]pyridin-6-amine], for which, on EGFR T790M L858R, the Ki came out at 23.5 nM. Further, the EC50 in assay [1] amounted to 2380 nM; in assay [2], 3700 nM.
The matching figures for `CC(C)n1nc(N2CCOCC2)c2cnc(Nc3ccnc(-c4cnn(S(=O)(=O)C5CC5)c4)n3)cc21` [Example 51, N-(2-(1-(cyclopropylsulfonyl)-1H-pyrazol-4-yl)pyrimidin-4-yl)-1-isopropyl-3-morpholino-1H-pyrazolo[4,3-c]pyridin-6-amine]: 1.9 nM, 74.4 nM and 266 nM.
The matching figures for `CC(C)n1nc(NC2CCOCC2)c2cnc(Nc3ccnc(-c4cnn(S(=O)(=O)C5CC5)c4)n3)cc21` [Example 52, N^6-(2-(1-(cyclopropylsulfonyl)-1H-pyrazol-4-yl)pyrimidin-4-yl)-1-isopropyl-N^3-(tetrahydro-2H-pyran-4-yl)-1H-pyrazolo[4,3-c]pyridine-3,6-diamine]: 2.2 nM, 90.1 nM and 1110 nM.
For `CC(C)n1nc(N2CC(C(N)=O)C2)c2cnc(Nc3ccnc(-c4cnn(S(=O)(=O)C5CC5)c4)n3)cc21` [Example 55, 1-(6-(2-(1-(cyclopropylsulfonyl)-1H-pyrazol-4-yl)pyrimidin-4-ylamino)-1-isopropyl-1H-pyrazolo[4,3-c]pyridin-3-yl)azetidine-3-carboxamide], in that order: less than 0.6 nM, 144 nM and 938 nM.
For `CC(C)n1nc(N2CC(C(=O)N(C)C)C2)c2cnc(Nc3ccnc(N4CCC(O)C(C)(C)C4)n3)cc21` (centres unmarked) [Example 56, 1-(6-(2-(4-hydroxy-3,3-dimethylpiperidin-1-yl)pyrimidin-4-ylamino)-1-isopropyl-1H-pyrazolo[4,3-c]pyridin-3-yl)-N,N-dimethylazetidine-3-carboxamide], the Ki at EGFR T790M L858R is 1.2 nM. Moreover, the results for the EC50 in assay [1] and in assay [2] were 31.1 nM and 348 nM, respectively.
The matching figures for `CC(C)n1nc(N2CC(C(=O)N(C)C)C2)c2cnc(Nc3ccnc(-c4cnn(S(=O)(=O)C5CC5)c4)n3)cc21` [Example 57, 1-(6-(2-(1-(cyclopropylsulfonyl)-1H-pyrazol-4-yl)pyrimidin-4-ylamino)-1-isopropyl-1H-pyrazolo[4,3-c]pyridin-3-yl)-N,N-dimethylazetidine-3-carboxamide]: less than 0.6 nM, 18.1 nM and 159 nM.
The matching figures for `CC(C)n1nc(N2CC[C@H](CO)C2)c2cnc(Nc3ccnc(-c4cnn(S(=O)(=O)C5CC5)c4)n3)cc21` [Example 58, (S)-(1-(6-(2-(1-(cyclopropylsulfonyl)-1H-pyrazol-4-yl)pyrimidin-4-ylamino)-1-isopropyl-1H-pyrazolo[4,3-c]pyridin-3-yl)pyrrolidin-3-yl)methanol]: 1.2 nM, 9.4 nM and 139 nM.
Turning to `CC(C)n1nc(NCC(C)(C)O)c2cnc(Nc3ccnc(-c4cnn(S(=O)(=O)C5CC5)c4)n3)cc21` [Example 61, 1-(6-(2-(1-(cyclopropylsulfonyl)-1H-pyrazol-4-yl)pyrimidin-4-ylamino)-1-isopropyl-1H-pyrazolo[4,3-c]pyridin-3-ylamino)-2-methylpropan-2-ol], on EGFR T790M L858R, the Ki was 1 nM. Besides, the EC50 turned out to be 68.9 nM in assay [1] and 1200 nM in assay [2].
As for `CC(C)Oc1nn(C(C)C)c2cc(Nc3ccnc(-c4cnn(S(=O)(=O)C5CC5)c4)n3)ncc12` [Example 62, N-(2-(1-(cyclopropylsulfonyl)-1H-pyrazol-4-yl)pyrimidin-4-yl)-3-isopropoxy-1-isopropyl-1H-pyrazolo[4,3-c]pyridin-6-amine], the Ki on EGFR T790M L858R was 12 nM. For the same compound, the EC50 in assay [1] is 458 nM; in assay [2], 3590 nM.
Turning to `COCC1CN(c2nn(C(C)C)c3cc(Nc4ccnc(-c5cnn(S(=O)(=O)C6CC6)c5)n4)ncc23)C1` [Example 152, N-(2-(1-(Cyclopropylsulfonyl)-1H-pyrazol-4-yl)pyrimidin-4-yl)-1-isopropyl-3-(3-(methoxymethyl)azetidin-1-yl)-1H-pyrazolo[4,3-c]pyridin-6-amine], the EC50 in assay [2] is 211 nM. The Ki on EGFR del746-750 T790M was 0.8 nM.
